One assay deals with HLF+ HSC. Conditions: day 10 cultures; applicant's analysis of published dataset; cited from earlier work.
For the next assay, the system named is CB HSPCs. Nature of the assay: FACS based endocytosis assay, internalized fluorescent dextran in CB HSPCs. Type of assay: cell-based, human. Conditions: MYCT1 KD CB HSPCs cultured 5 days; chlorpromazine 10 μM, MbCD 1 mM. The protocol: (§1) HSPC or endothelial cells transduced with control, MYCT1 KD, or MYCT1 OE lentiviral vectors were incubated with fluorescent dextran (pHrodo Red Dextran, ThermoFisher Scientific P10361) 40 μg/ml for 30 minutes at 37° C. After incubation, cells were immediately placed on ice, washed with ice-cold DPBS with 5% FBS and resuspended into single cell suspension for FACS analysis. 7AAD was included to discriminate dead cells.

The test system of another assay is E4EC. Nature of the assay: FACS based endocytosis assay, internalized fluorescent dextran in E4EC. In kind it is cell-based, human. The conditions noted are these: MYCT1 KD E4EC, 10 μM chlorpromazine. How it is done:
as §1

For the compound `CC(C)n1cnc2c(NCCc3ccc(O)cc3)nc(-c3csc4ccccc34)nc21` [SR1], in the assay with HLF+ HSC, the “MYCT1 expression in HLF+ HSC” value was “minimal MYCT1 expression”.
For the compound `Cn1nnc(-c2ccc3c(c2)[nH]c2nc(Cc4ccccc4)nc(NC4CCC(N)CC4)c23)n1` (centres unmarked) [UM171], the “MYCT1 expression in HLF+ HSC” value in the assay with HLF+ HSC was “minimal MYCT1 expression”.
For the compound `CN(C)CCCN1c2ccccc2Sc2ccc(Cl)cc21` [chlorpromazine], the “dextran internalization after pre-treatment with endocytosis inhibitor” value with CB HSPCs is listed as “not sufficient to restore hyperactive endocytosis”. The “internalized fluorescent dextran after pre-treatment with endocytosis inhibitor” value in the assay with E4EC is reported as “dampened the increased endocytosis caused by MYCT1 loss”.
Consider methyl-beta-cyclodextrin, for which, in the assay on CB HSPCs, the “dextran internalization after pre-treatment with endocytosis inhibitor” value is on record as “not sufficient to restore hyperactive endocytosis”.
